Measurements reported in patent US20040010001A1, “Methods and compositions for modulating cell proliferation and cell death” (priority 1999, published 2004).
Where two headings read alike, the source gives them in different places.

What was measured:
Format in all cases: cell-based
[1] = tested on: Human prostate PC3 tumor cells; assay: aFGF/bFGF-induced resistance and reversal by suramin, sulforhodamine B assay
Procedure: The experimental conditions are described briefly below. […] Cell number was measured using the sulforhodamine B assay which measures the total protein concentration. […] The FGF-induced resistance was dependent on the FGF concentrations, with a higher resistance at higher FGF concentrations.

[2] = tested on: rat lung metastasis cells, monolayers; assay: Drug effect in monolayers of rat lung metastasis cells (inhibition of bromodeoxyuridine incorporation); details: 96 h, read-out: Concentration producing 50% inhibition
[3] = tested on: rat primary tumor cells, monolayers; assay: Drug effect in monolayers of rat primary tumor cells (inhibition of bromodeoxyuridine incorporation); details: 96 h, read-out: Concentration producing 50% inhibition
[4] = tested on: rat primary tumors, histocultures; assay: Drug effect in histocultures of rat primary tumors (inhibition of 3H-thymidine incorporation); details: Histocultures, Primary, 96 hours, read-out: Concentration producing 50% inhibition
[5] = tested on: rat lymph node metastasis cells, monolayers; assay: Drug effect in monolayers of rat lymph node metastasis cells (inhibition of bromodeoxyuridine incorporation); details: 96 h, read-out: Concentration producing 50% inhibition
[6] = tested on: Human pharynx FaDu; assay: FGF-induced resistance, inhibition of BrdU incorporation; details: read-out: Drug concentration needed to produce 50% inhibition
Procedure: (§1) Prior to drug treatment, cells were incubated for 4 days with tumor CM or with r-aFGF ad/or r-bFGF-containing medium, supplemented with 1% FBS (final protein concentration adjusted to 2 mg/ml). The medium was renewed every other day.
(§2) The antiproliferative drug effect in histocultures was measured as inhibition of ^3H-thymidine incorporation quantified by autoradiography (Yen, W. C. et al. (1996) Pharm. Res. 13:1305-1312) and, for monolayers, as inhibition of BrdU incorporation or as reduction of total proteins by the sulforhodamine B assay (Au, J. L.-S. et al. (1998) Cancer Res. 58:2141-2148). For the latter, the two assays yielded qualitatively similar results. Cell kill induced by 96-hour drug treatment was monitored by the release of LDH into the culture medium. LDH activity was monitored by the conversion of tetrazolium to formazan (detected at 490 nm).
(§3) The experimental conditions are described briefly below. Cells were pretreated with human recombinant r-aFGF and/or r-bFGF for 96 hours and then with drugs for 96 hours. For the studies on cells derived from the human prostate, lung, pharynx, colon and breast cancer cells, the drug effect was determined by the inhibition of BrdU incorporation. For the study on the human leukemic cells, the drug effect was measured by the MTT assay, which measures the number of metabolically active cells (Alley, M. C. et al (1988) Cancer Res 48:589-601).

[7] = tested on: Human colon HT-29; assay: as above; details: read-out: Drug concentration needed to produce 50% inhibition
Procedure: as §1, §2, §3

[8] = tested on: Rat prostate MAT-LyLu; assay: as above; details: read-out: Drug concentration needed to produce 50% inhibition
Procedure: as §1, §2, §3

[9] = tested on: Human lung A459; assay: as above; details: read-out: Drug concentration needed to produce 50% inhibition
Procedure: as §1, §2, §3

[10] = tested on: Human breast BC19 (subline of MCF7 transfected with mdr1); assay: as above; details: read-out: Drug concentration needed to produce 50% inhibition
Procedure: as §1, §2, §3

[11] = tested on: Human prostate PC3; assay: as above; details: Homo sapiens, read-out: Drug concentration needed to produce 50% inhibition
Procedure: as §1, §2, §3

[12] = tested on: Human breast MCF7; assay: as above; details: read-out: Drug concentration needed to produce 50% inhibition
Procedure: as §1, §2, §3

[13] = no suramin, relative to control
[14] = 96 h, r-aFGF + r-bFGF 0.04 ± 1 ng/ml
[15] = 96 h, r-aFGF + r-bFGF 0.08 ± 1 ng/ml
[16] = 96 h, r-aFGF + r-bFGF 0.32 ± 1 ng/ml
[17] = 96 h, r-aFGF + r-bFGF 0.64 ± 1 ng/ml
[18] = 96 h, r-aFGF + r-bFGF 1 ± 1 ng/ml

`COc1cccc2c1C(=O)c1c(O)c3c(c(O)c1C2=O)C[C@@](O)(C(=O)CO)C[C@@H]3O[C@H]1C[C@H](N)[C@H](O)[C@H](C)O1` [Doxorubicin] gave an IC50 ([1]; Homo sapiens, read-out: IC50, Control (drug treatment only, without FGF treatment), No suramin, drug 96 hours) of 0.0278 µM, an IC50 ([1]; Homo sapiens, read-out: IC50, aFGF 0.3 ng/ml + bFGF 1 ng/ml, No suramin, FGF pretreatment 96 hours, drug 96 hours) of 0.145 µM and an IC50 ([1]; Homo sapiens, read-out: IC50, aFGF 1 ng/ml + bFGF 3 ng/ml, No suramin, FGF pretreatment 96 hours, drug 96 hours) of 0.281 µM. The “Resistance, Folds, aFGF 0.3 ng/ml + bFGF 1 ng/ml” value [1, 13] was 5.23 Folds, the “Resistance, Folds, aFGF 1 ng/ml + bFGF 3 ng/ml” value [1, 13] was 10.11 Folds and the IC50 ([1]; read-out: IC50, Control (without FGF treatment), Suramin, 15 μM, drug 96 hours with 15 μM suramin) was 0.0359 µM. The IC50 ([1]; read-out: IC50, aFGF 0.3 ng/ml + bFGF 1 ng/ml, With suramin, FGF pretreatment 96 hours, drug 96 hours with 15 micromolar suramin) was 0.0298 µM, the IC50 ([1]; read-out: IC50, aFGF 1 ng/ml + bFGF 3 ng/ml, With suramin, FGF pretreatment 96 hours, drug 96 hours with 15 micromolar suramin) was 0.0279 µM and the IC50 ([2]; Monolayers (passage 0)) was 0.077 ± 0.0029 µM. For the same compound, the IC50 ([2]; Monolayers (passage 1)) was 0.0317 ± 0.0089 µM, the IC50 ([2]; Monolayers (passage 2)) was 0.0166 ± 0.001 µM and the IC50 ([2]; Monolayers (passage 3)) was 0.008 ± 0.0005 µM. It also gave an IC50 ([3]; Monolayers (passage 0)) of 0.008 ± 0.0005 µM, an IC50 ([3]; Monolayers (passage 1)) of 0.0086 ± 0.0005 µM and an IC50 ([3]; Monolayers (passage 2)) of 0.008 ± 0.0004 µM. The IC50 ([3]; Monolayers (passage 3)) was 0.008 ± 0.0002 µM, the IC50 [4] was 0.018 ± 0.011 µM and the IC50 ([5]; Monolayers (passage 0)) was 0.031 ± 0.0023 µM. The IC50 ([5]; Monolayers (passage 1)) was 0.0179 ± 0.0012 µM, the IC50 ([5]; Monolayers (passage 2)) was 0.011 ± 0.0004 µM and the IC50 ([5]; Monolayers (passage 3)) was 0.0078 ± 0.0005 µM. It also gave an IC50 ([6]; 96 h, r-aFGF + r-bFGF 0 ng/ml) of 0.0135 µM, an IC50 [6, 14] of 0.0135 µM and an IC50 [6, 15] of 0.014 µM. For the same compound, the IC50 ([6]; 96 h, r-aFGF + r-bFGF 0.16 ± 1 ng/ml) was 0.0137 µM, the IC50 [6, 16] was 0.0141 µM and the IC50 [6, 17] was 0.0275 µM. The IC50 [6, 18] was 0.054 µM, the IC50 ([6]; r-aFGF 0 ng/ml) was 0.0135 µM and the IC50 ([6]; r-aFGF 1 ng/ml) was 0.013 µM. The IC50 ([6]; r-aFGF 10 ng/ml) was 0.0137 µM, the IC50 ([6]; r-aFGF 50 ng/ml) was 0.014 µM and the IC50 ([6]; r-bFGF 0 ng/ml) was 0.0142 µM. For the same compound, the IC50 ([6]; r-bFGF 1 ng/ml) was 0.0139 µM, the IC50 ([6]; r-bFGF 10 ng/ml) was 0.0141 µM and the IC50 ([6]; r-bFGF 50 ng/ml) was 0.0137 µM. It also gave an IC50 ([7]; HT-29, 96 h, r-aFGF + r-bFGF 0 ng/ml) of 0.0302 µM, an IC50 ([7]; HT-29, 96 h, r-aFGF + r-bFGF 0.04 ± 1 ng/ml) of 0.0291 µM and an IC50 ([7]; HT-29, 96 h, r-aFGF + r-bFGF 0.08 ± 1 ng/ml) of 0.03 µM. It also gave an IC50 ([7]; HT-29, 96 h, r-aFGF + r-bFGF 0.16 ± 1 ng/ml) of 0.0305 µM, an IC50 ([7]; HT-29, 96 h, r-aFGF + r-bFGF 0.32 ± 1 ng/ml) of 0.0481 µM and an IC50 ([7]; HT-29, 96 h, r-aFGF + r-bFGF 0.64 ± 1 ng/ml) of 0.0727 µM. It also gave an IC50 ([7]; HT-29, 96 h, r-aFGF + r-bFGF 1 ± 1 ng/ml) of 0.131 µM, an IC50 ([7]; HT-29, r-aFGF 0 ng/ml) of 0.0302 µM and an IC50 ([7]; HT-29, r-aFGF 1 ng/ml) of 0.0321 µM. The IC50 ([7]; HT-29, r-aFGF 10 ng/ml) was 0.0303 µM, the IC50 ([7]; HT-29, r-aFGF 50 ng/ml) was 0.03 µM and the IC50 ([7]; HT-29, r-bFGF 0 ng/ml) was 0.0241 µM. For the same compound, the IC50 ([7]; HT-29, r-bFGF 1 ng/ml) was 0.0244 µM, the IC50 ([7]; HT-29, r-bFGF 10 ng/ml) was 0.0245 µM and the IC50 ([7]; HT-29, r-bFGF 50 ng/ml) was 0.0261 µM. For the same compound, the IC50 ([8]; r-bFGF 0 ng/ml) was 0.0103 µM, the IC50 ([8]; r-bFGF 1 ng/ml) was 0.0183 µM and the IC50 ([8]; r-bFGF 10 ng/ml) was 0.54 µM. It also gave an IC50 ([8]; r-bFGF 50 ng/ml) of 0.238 µM, an IC50 ([9]; A459, 96 h, r-aFGF + r-bFGF 0 ng/ml) of 0.122 µM and an IC50 ([9]; A459, 96 h, r-aFGF + r-bFGF 0.04 ± 1 ng/ml) of 0.118 µM. It also gave an IC50 ([9]; A459, 96 h, r-aFGF + r-bFGF 0.08 ± 1 ng/ml) of 0.159 µM, an IC50 ([9]; A459, 96 h, r-aFGF + r-bFGF 0.16 ± 1 ng/ml) of 0.238 µM and an IC50 ([9]; A459, 96 h, r-aFGF + r-bFGF 0.32 ± 1 ng/ml) of 0.309 µM. It also gave an IC50 ([9]; A459, 96 h, r-aFGF + r-bFGF 0.64 ± 1 ng/ml) of 0.386 µM, an IC50 ([9]; A459, 96 h, r-aFGF + r-bFGF 1 ± 1 ng/ml) of 0.582 µM and an IC50 ([9]; A459, r-aFGF 0 ng/ml) of 0.122 µM. For the same compound, the IC50 ([9]; A459, r-aFGF 1 ng/ml) was 0.12 µM, the IC50 ([9]; A459, r-aFGF 10 ng/ml) was 0.123 µM and the IC50 ([9]; A459, r-aFGF 50 ng/ml) was 0.118 µM. For the same compound, the IC50 ([9]; A459, r-bFGF 0 ng/ml) was 0.119 µM, the IC50 ([9]; A459, r-bFGF 1 ng/ml) was 0.118 µM and the IC50 ([9]; A459, r-bFGF 10 ng/ml) was 0.238 µM. For the same compound, the IC50 ([9]; A459, r-bFGF 50 ng/ml) was 0.285 µM, the IC50 ([10]; r-bFGF 0 ng/ml) was 0.128 µM and the IC50 ([10]; r-bFGF 0.01 ng/ml) was 0.15 µM. The IC50 ([10]; r-bFGF 0.1 ng/ml) was 0.27 µM, the IC50 ([10]; r-bFGF 1 ng/ml) was 0.407 µM and the IC50 ([11]; 96 h, r-aFGF + r-bFGF 0 ng/ml) was 0.0082 µM. It also gave an IC50 [11, 14] of 0.0085 µM, an IC50 [11, 15] of 0.0152 µM and an IC50 [11, 16] of 0.0622 µM. The IC50 [11, 17] was 0.0848 µM, the IC50 [11, 18] was 0.107 µM and the IC50 ([11]; 96 h, r-aFGF + r-bFGF) was 0.0353 µM. The IC50 ([11]; r-aFGF 0 ng/ml) was 0.0082 µM, the IC50 ([11]; r-aFGF 1 ng/ml) was 0.0083 µM and the IC50 ([11]; r-aFGF 10 ng/ml) was 0.0081 µM. For the same compound, the IC50 ([11]; r-aFGF 50 ng/ml) was 0.0084 µM, the IC50 ([11]; r-bFGF 0 ng/ml) was 0.0081 µM and the IC50 ([11]; r-bFGF 1 ng/ml) was 0.00851 µM. The IC50 ([11]; r-bFGF 10 ng/ml) was 0.0238 µM, the IC50 ([11]; r-bFGF 50 ng/ml) was 0.0508 µM and the IC50 ([12]; MCF7, r-bFGF 0 ng/ml) was 0.0169 µM. The IC50 ([12]; MCF7, r-bFGF 0.01 ng/ml) was 0.0213 µM, the IC50 ([12]; MCF7, r-bFGF 0.1 ng/ml) was 0.0376 µM and the IC50 ([12]; MCF7, r-bFGF 1 ng/ml) was 0.595 µM.
